From US20230339880A1, “COMPOSITIONS OF AJULEMIC ACID AND USES THEREOF” (priority 2019, published 2023)

Key:
Type in all cases: physicochemical
[1] = Dynamic Vapor Sorption (DVS)
Procedure: Approximately 10-20 mg of sample was placed into a mesh vapor sorption balance pan and loaded into a Surface Measurement Systems DVS Intrinsic dynamic vapor sorption balance. The material was subjected to a ramping profile from 40 to 90% relative humidity (RH) at 10% increments, maintaining the sample at each step until a stable weight had been achieved (dm/dt 0.004%, minimum step length 30 minutes, maximum step length 500 minutes) at 25° C. After completion of the sorption cycle, the sample was dried using the same procedure to 0% RH and then a second sorption cycle back to 40% RH was carried out. Two cycles were performed. The weight change during the sorption/desorption cycles were plotted, allowing the hygroscopic nature of the sample to be determined. XRPD analysis was then carried out on any solid retained.
Because this equilibration with ambient humidity is rapid, calculation or use of sufficiently accurate assay results on Form A material must take into account its current water content.

[2] = Thermogravimetric Analysis/Dynamic Temperature Analysis (TGA/DTA); conditions: for TGA wt. loss: from the onset to about 210° C., heating 10° C./min
Procedure: Approximately 5-10 mg of material was weighed into an open aluminum pan and loaded into a TA Instruments SDT650 and held at room temperature. The sample was then heated at a rate of 10° C./min from 30° C. to 350° C. during which time the change in sample weight was recorded along with the heat flow response (DSC). Nitrogen was used as the purge gas, at a flow rate of 100 cm^3/min for both the sample and balance purges.

[3] = Thermodynamic solubility studies; conditions: for Average Concentration: triplicate average; for Form by XRPD Dry: residual solids dried under vacuum; for Form by XRPD Wet: residual solids
Procedure: For each experiment, approximately 50 mg of either crystal form A or crystal form B was weighed into a 20 mL scintillation vial. 15 mL of the appropriate solvent system was added and the solution was stirred at 37° C. At approximately 7.5 h, a portion of the mother liquor was transferred to a pre-heated vial (at 37° C.) via syringe filter (0.45 μm). An aliquot of slurry was removed, and the solids in the aliquot were isolated by centrifugation and plated for XRPD analysis. The plated solids were stored in freezer for 12 h prior to analysis.
The remaining solution was further stirred at 37° C. overnight (approximately 25 h total stirring time). Stirring was then terminated and the solids were allowed to settle. After approximately 0.75 h, a portion of the mother liquor was transferred to a pre-heated vial (at 37° C.) via syringe filter (0.45 μm). The residual solids were isolated by centrifugation and analyzed by XRPD.
For “dry” analysis, the XRPD plates were dried under vacuum at ambient temperature for approximately 23 h and re-analyzed.

[4] = FaSSGF, after approximately 7.5 h at 37° C.
[5] = FaSSGF, after approximately 25 h at 37° C.
[6] = FaSSIF, after approximately 7.5 h at 37° C.
[7] = FaSSIF, after approximately 25 h at 37° C.
[8] = FeSSIF, after approximately 7.5 h at 37° C.
[9] = FeSSIF, after approximately 25 h at 37° C.
[10] = pH 6.1 media, after approximately 7.5 h at 37° C.
[11] = pH 6.1 media, after approximately 25 h at 37° C.
[12] = pH 6.8 media, after approximately 7.5 h at 37° C.
[13] = pH 6.8 media, after approximately 25 h at 37° C.
[14] = FaSSGF, approximately 7.5 h at 37° C.
[15] = FaSSGF, approximately 25 h at 37° C.
[16] = FeSSIF, approximately 7.5 h at 37° C.
[17] = FeSSIF, approximately 25 h at 37° C.
[18] = pH 6.1 media, approximately 25 h at 37° C.
[19] = pH 6.8 media, approximately 25 h at 37° C.

Compound	TGA wt. loss [2]	Average Concentration [3, 4]	Average Concentration [3, 5]	Average Concentration [3, 6]	Average Concentration [3, 7]	Average Concentration [3, 8]	Average Concentration [3, 9]	Average Concentration [3, 10]	Average Concentration [3, 11]	Average Concentration [3, 12]	Average Concentration [3, 13]	other results
CCCCCCC(C)(C)c1cc(O)c2c(c1)OC(C)(C)[C@@H]1CC=C(C(=O)O)C[C@@H]21 [crystal form A, (6aR,10aR)-1-hydroxy-6,6-dimethyl-3-(2-methyl-2-octanyl)-6a,7,10,10a-tetrahydro-6H-benzo[c]chromene-9-carboxylic acid]	0.7 % wt.	0.2 µg/mL	0.2 µg/mL	1063 µg/mL	391 µg/mL	335 µg/mL	227 µg/mL	3.0 µg/mL	2.0 µg/mL	18 µg/mL	14 µg/mL	uptake of water by weight ([1]; at 90% RH, similar DVS studies): about 3.5%; TGA wt. loss ([2]; listed as Crystal Form A): 0.7 % wt.; Form by XRPD Dry [3, 14]: A + trace B; Form by XRPD Dry [3, 15]: B + A; Form by XRPD Dry [3, 16]: A*; Form by XRPD Dry [3, 17]: (X) +; Form by XRPD Dry [3, 18]: A +; Form by XRPD Dry [3, 19]: A*; Form by XRPD Wet [3, 14]: A + trace B; Form by XRPD Wet [3, 15]: A + B; Form by XRPD Wet ([3]; FaSSIF, approximately 25 h at 37° C.): B +; Form by XRPD Wet [3, 16]: A*; Form by XRPD Wet [3, 17]: (X) +; Form by XRPD Wet [3, 18]: A + B; Form by XRPD Wet [3, 19]: A*
CCCCCCC(C)(C)c1cc(O)c2c(c1)OC(C)(C)[C@@H]1CC=C(C(=O)O)C[C@@H]21 [crystal form B, (6aR,10aR)-1-hydroxy-6,6-dimethyl-3-(2-methyl-2-octanyl)-6a,7,10,10a-tetrahydro-6H-benzo[c]chromene-9-carboxylic acid]	0.9 % wt.	0.3 µg/mL	0.4 µg/mL	242 µg/mL	266 µg/mL	684 µg/mL	696 µg/mL	1.2 µg/mL	0.1 µg/mL	4.3 µg/mL	2.0 µg/mL	water uptake ([1]; at 90% RH, 25° C.): circa 1 wt %; hygroscopic nature by DVS ([1]; ramping 40 to 90% RH, 25° C.): slightly hygroscopic; Post-DVS XRPD analysis ([1]; solid retained after two sorption/desorption cycles): no change in pattern; TGA wt. loss ([2]; listed as Crystal Form B): no significant mass loss; decomposition temperature by TGA/DTA ([2]; heating 10° C./min from 30° C. to 350° C.): ca. 285 °C
